Results as given in patent publication US20220118070A1, “CANCER THERAPY BY MODIFYING NEOANTIGEN EXPRESSION” (priority 2019, published 2022).
Entries after “also recorded” stand apart in the source; their conditions may differ.

What was measured:
[1] = tested on: chromatin-associated SUMOylation on the p73 promoter; experiment: ChIP with anti-SUMO2/3 antibody on the p73 promoter; type: cell-based; conditions: 5 μM, 72 h; U2OS cells; FIG. 6A
Method: A) U2OS cells were treated with 5 μM PRMT5 inhibitor (P5 inh) for 72 h where indicated, prior to ChIP analysis with anti-SUMO2/3 specific or control antibodies. Immunoprecipitated chromatin was analysed using primers specific for the E2F site in the p73 promoter (i). An RT-PCR was also performed to monitor the levels of p73 transcripts in the cell (ii). […] See also FIGS. 10F and 10G. ChIP was performed as described previously [(29) or (30)]. Antibodies used for immunoprecipitation were as follows: anti-E2F1 (C-20), anti-HA (16B12), anti-HP1α (NB110-40623, Novus Biologicals; RRID: AB_714949), anti-SUMO2/3 (8A2; Abcam; RRID: AB_1658424), non-specific rabbit or mouse IgG. The recovered DNA was analysed in triplicate by real-time QPCR as described (30, 31) on a MX3005P QPCR system using Brilliant III SYBR Green QPCR Master Mix according to the manufacturer's instructions. Results were expressed as average (mean) fold change compared to IgG control treatments using the ΔΔCt method from triplicate biological repeat samples. Alternatively, a standard curve was generated to calculate ChIP/input signals that were subsequently used to generate fold change values compared to IgG control. Error bars represent standard error unless otherwise indicated.

[2] = tested on: SENP7 RNA variants; experiment: qRT-PCR of SENP7 transcript variants in treated cells; type: cell-based; conditions: 5 μM, 72 h; U2OS and HCT116 cells; FIGS. 4D and 4E
Method: D) U2OS cells were treated for 72 h with 5 μM PRMT5 inhibitor (P5 inh). RNA was then isolated from cells and analysed by qRT-PCR using primers targeting specific SENP7 transcript variants or total SENP7 RNA. […] E) As above, though the experiment was performed in HCT116 cells. n=4 RNA was isolated from cells using TRIzol (Thermo Fisher) according to the manufacturer's instructions. 1 μg of total RNA was used for cDNA synthesis. For standard mRNA analysis oligo(d)T20 (Invitrogen) was added. For splice variant analysis, RNA was DNAse treated (Sigma-Aldrich) prior to cDNA synthesis using random hexamers (Invitrogen). M-MLV reverse transcriptase (Promega) was used as per the manufacturer's instructions. qRT-PCR was carried out in triplicate using the indicated primer pairs and Brilliant III SYBR Green QPCR Master Mix (Stratagene) on an MX3005P (Agilent) QPCR instrument. Results were expressed as average (mean) fold change compared to control treatments using the ΔΔCt method from three biological repeat samples. GAPDH or actin primer sets were used as an internal calibrator. Error bars represent standard error unless otherwise indicated.

[3] = tested on: chromatin-associated HP1a; experiment: ChIP with anti-HP1a antibody on the p73 promoter; type: cell-based; conditions: PRMT5 inhibitor 24 h or 48 h; U2OS cells; FIG. 6B
Method: B) As above, though cells were treated with the PRMT5 inhibitor (P5 inh) for 24 h or 48 h as indicated. ChIP analysis was performed with anti-HP1a specific or control antibodies (i).
C) U2OS cells were transfected with SENP7 siRNA or non-targeting siRNA (siNT) for 96 h as indicated. Cells were then prepared for ChIP analysis as above (i).
ChIP was performed as described previously [(29) or (30)]. Antibodies used for immunoprecipitation were as follows: anti-E2F1 (C-20), anti-HA (16B12), anti-HP1α (NB110-40623, Novus Biologicals; RRID: AB_714949), anti-SUMO2/3 (8A2; Abcam; RRID: AB_1658424), non-specific rabbit or mouse IgG. The recovered DNA was analysed in triplicate by real-time QPCR as described (30, 31) on a MX3005P QPCR system using Brilliant III SYBR Green QPCR Master Mix according to the manufacturer's instructions. Results were expressed as average (mean) fold change compared to IgG control treatments using the ΔΔCt method from triplicate biological repeat samples. Alternatively, a standard curve was generated to calculate ChIP/input signals that were subsequently used to generate fold change values compared to IgG control. Error bars represent standard error unless otherwise indicated.

[4] = biological target: PRMT5 (Homo sapiens, UniProt O14744); conditions: cited from earlier work
[5] = tested on: Mantle Cell Lymphoma; conditions: in vitro and in vivo models of Mantle Cell Lymphoma; cited from earlier work
[6] = tested on: p73 transcripts; experiment: RT-PCR of p73 transcripts in treated cells; type: cell-based; conditions: 5 μM; U2OS and HCT116 cells; FIG. 6A, FIGS. 10F and G
Method: A) U2OS cells were treated with 5 μM PRMT5 inhibitor (P5 inh) for 72 h where indicated, prior to ChIP analysis with anti-SUMO2/3 specific or control antibodies. Immunoprecipitated chromatin was analysed using primers specific for the E2F site in the p73 promoter (i). An RT-PCR was also performed to monitor the levels of p73 transcripts in the cell (ii). […] See also FIGS. 10F and 10G. F) U2OS cells were treated with 5 μM PRMT5 inhibitor (P5 inh) as indicated, prior to RNA extraction and qRT-PCR analysis with primers recognising total p73 or CDC6 transcripts as indicated (i). […] 1 μg of total RNA was used for cDNA synthesis. For standard mRNA analysis oligo(d)T20 (Invitrogen) was added. For splice variant analysis, RNA was DNAse treated (Sigma-Aldrich) prior to cDNA synthesis using random hexamers (Invitrogen). M-MLV reverse transcriptase (Promega) was used as per the manufacturer's instructions. qRT-PCR was carried out in triplicate using the indicated primer pairs and Brilliant III SYBR Green QPCR Master Mix (Stratagene) on an MX3005P (Agilent) QPCR instrument. Results were expressed as average (mean) fold change compared to control treatments using the ΔΔCt method from three biological repeat samples. GAPDH or actin primer sets were used as an internal calibrator. Error bars represent standard error unless otherwise indicated.

[7] = tested on: interaction of snRNA with E2F1; experiment: Anti-E2F1 RNA immunoprecipitation (RIP), co-immunoprecipitating snRNA by qRT-PCR; type: cell-based; conditions: 5 μM PRMT5 inhibitor; U2OS, HCT116 and MCF7 cells; FIGS. 3B, E and F
Method: B) U2OS cells were treated with 5 μM PRMT5 inhibitor (P5 inh) as indicated, prior to performing an anti-E2F1 RIP. Co-immunoprecipitating U6 (i) and U4 (ii) snRNAs were identified with specific primers by qRT-PCR. Input protein levels were determined by immunoblot (iii). n=3
E) HCT116 cells were treated with 5 μM PRMT5 inhibitor (P5 inh) where indicated, prior to performing an anti-E2F1 RIP. Co-immunoprecipitated U1 (i) and U6 (ii) snRNA were detected by qRT-PCR.
F) As above, though the experiment was performed in MCF7 cells.
A) U2OS cells (i) and HCT116 cells (ii) were transfected for 96 h with 25 nM non-targeting (siNT) or p100/TSN specific siRNA, prior to lysis in RIP buffer. Cell extracts were immunoprecipitated with E2F1 antibody and co-immunoprecipitating RNA was reverse transcribed prior to QPCR analysis with primers against U5 (i) and U6 (ii) snRNAs as indicated. Input protein levels were determined by immunoblot.
RNA was isolated from cells using TRIzol (Thermo Fisher) according to the manufacturer's instructions. 1 μg of total RNA was used for cDNA synthesis. For standard mRNA analysis oligo(d)T20 (Invitrogen) was added. […] Results were expressed as average (mean) fold change compared to control treatments using the ΔΔCt method from three biological repeat samples. […]

[8] = tested on: interaction between E2F1 and SENP7 V5 RNA; experiment: Anti-E2F1 RIP, co-immunoprecipitating SENP7 V5 transcripts by qRT-PCR; type: cell-based; conditions: 5 μM; HCT116 cells; FIG. 4C
Method: C) HCT116 cells were treated with 5 μM PRMT5 inhibitor (P5 inh) where indicated prior to performing an anti-E2F1 RIP. Co-immunoprecipitating SENP7 V5 transcripts were analysed by qRT-PCR.
RNA was isolated from cells using TRIzol (Thermo Fisher) according to the manufacturer's instructions. 1 μg of total RNA was used for cDNA synthesis. For standard mRNA analysis oligo(d)T20 (Invitrogen) was added. For splice variant analysis, RNA was DNAse treated (Sigma-Aldrich) prior to cDNA synthesis using random hexamers (Invitrogen). M-MLV reverse transcriptase (Promega) was used as per the manufacturer's instructions. qRT-PCR was carried out in triplicate using the indicated primer pairs and Brilliant III SYBR Green QPCR Master Mix (Stratagene) on an MX3005P (Agilent) QPCR instrument. Results were expressed as average (mean) fold change compared to control treatments using the ΔΔCt method from three biological repeat samples. GAPDH or actin primer sets were used as an internal calibrator. Error bars represent standard error unless otherwise indicated.
Cells were washed once with PBS before UV cross-linking at 900 mJ/cm^2 using a Stratalinker (Stratagene). RIP lysis buffer (50 mM Tris-HCl pH 8.0, 150 mM NaCl, 1 mM MgCl2, 10% glycerol [v/v], 1% NP-40 [v/v], 1 mM DTT, 0.2 mM sodium orthovanadate and protease inhibitor cocktails) was added directly to the plate, on ice. […]

Chain of PRMT5 (O14744 whole entry): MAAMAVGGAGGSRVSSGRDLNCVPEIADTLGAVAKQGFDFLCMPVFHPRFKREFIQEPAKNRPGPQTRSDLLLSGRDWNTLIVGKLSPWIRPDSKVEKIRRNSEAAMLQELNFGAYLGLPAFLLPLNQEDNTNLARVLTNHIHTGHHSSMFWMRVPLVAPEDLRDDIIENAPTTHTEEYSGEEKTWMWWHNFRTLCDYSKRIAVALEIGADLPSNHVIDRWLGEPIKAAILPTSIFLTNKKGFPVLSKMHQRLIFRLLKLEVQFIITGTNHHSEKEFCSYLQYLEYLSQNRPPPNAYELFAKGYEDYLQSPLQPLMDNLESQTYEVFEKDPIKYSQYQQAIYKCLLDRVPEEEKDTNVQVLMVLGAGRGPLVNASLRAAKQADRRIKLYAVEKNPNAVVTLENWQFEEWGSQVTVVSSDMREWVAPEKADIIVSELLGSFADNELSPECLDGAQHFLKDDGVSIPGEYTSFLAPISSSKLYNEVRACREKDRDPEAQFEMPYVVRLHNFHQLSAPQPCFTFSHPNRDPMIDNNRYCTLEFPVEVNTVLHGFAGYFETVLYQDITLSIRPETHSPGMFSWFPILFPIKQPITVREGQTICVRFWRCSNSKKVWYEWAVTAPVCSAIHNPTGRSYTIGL
Chain of PRMT5 (Q9BQA1 whole entry partner): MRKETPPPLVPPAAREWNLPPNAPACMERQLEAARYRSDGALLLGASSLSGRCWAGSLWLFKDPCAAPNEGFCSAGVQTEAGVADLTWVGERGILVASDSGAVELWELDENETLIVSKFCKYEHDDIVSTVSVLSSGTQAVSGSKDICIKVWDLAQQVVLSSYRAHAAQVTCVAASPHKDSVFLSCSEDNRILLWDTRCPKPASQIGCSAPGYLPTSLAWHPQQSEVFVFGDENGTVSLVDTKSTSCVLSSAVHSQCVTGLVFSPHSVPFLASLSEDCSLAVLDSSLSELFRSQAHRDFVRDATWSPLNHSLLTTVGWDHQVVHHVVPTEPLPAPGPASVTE

O=C(NC[C@H](O)CN1CCc2ccccc2C1)c1cc(NC2COC2)ncn1 [EPZ015666]
chromatin-associated SUMOylation on the p73 promoter [1]: increase | level of the SENP7 V5 RNA variant [2]: lower level; also recorded: down-regulates | level of the other SENP7 RNA variants [2]: increased | association of HP1a with chromatin (p73 promoter) [3]: increased association | inhibition of PRMT5 [4]: potent and selective inhibitor | antiproliferative effects [5]: antiproliferative effects | levels of transcription (p73) [6]: reduced levels | interaction of snRNA with E2F1 [7]: absent | interaction between E2F1 and V5 RNA [8]: reduced
